Earlier results, collected in patent US20260091069A1, “TRANS[…] TRA[…] REGULATED ONCOLYTIC HERPES SIMPLEX VIRUS VECTORS” (VIROGIN BIOTECH CANADA LTD, priority 2021, published 2026).

Conditions: clinical dose of Ganciclovir

Question: With `Nc1nc(O)c2ncn(COC(CO)CO)c2n1` [Ganciclovir] as the compound, how does the Cmax in humans read?
Answer: 9 µg/mL
